Series [1] concerns Rattus norvegicus. Description: Compound was evaluated for the anticonvulsant activity by testing its ability to protect against maximal electroshock- induced seizures in rats; Intraperitoneal administration (ip). Format: functional.
The test system of series [2] is Rattus norvegicus. The experiment in a line: Compound was evaluated for the anticonvulsant activity by testing its ability to protect against maximal electroshock- induced seizures in rats after peroral administration (po). The format is functional. For orientation: The maximal electroshock test induces tonic seizures with an electrical stimulus.
The test system of series [3] is Rattus norvegicus. The experiment in a line: Compound was evaluated for the anticonvulsant activity by testing its ability to protect against maximal electroshock- induced seizures in rats; Intravenous administration (iv). Format: functional.
Series [4] has as its system Mus musculus. The experiment in a line: Concentration required to protect 50 % of mice against hind limb extensor component in MES test when administered intravenously. The format is functional. The note with it: Hindlimb, iv.
A short description of series [5]: (§1) Compound was evaluated for the anticonvulsant activity in rats. The format is organism-based. Conditions: rat, in vivo.
For series [6], the species on record is Rattus norvegicus. The description is as §1. Conditions: in vivo. The format is organism-based.
The test system of series [7] is Mus musculus. The experiment in a line: Concentration required to protect 50 % of mice against hind limb extensor component in MES test when administered intraperitoneally. The format is functional. The note with it: Hindlimb, ip.
Series [8] deals with Mus musculus. Description: Concentration required to protect 50 % of mice against hind limb extensor component in MES test when administered perorally. Conditions: Hindlimb, po. The format is functional.
Series [9] concerns Rattus norvegicus. The experiment in a line: Compound was evaluated for the anticonvulsant activity by testing its ability to protect against maximal electroshock- induced seizures in rats; Peroral administration (po). Format: functional.

As usually defined, the ED50 is the midpoint of the dose-response relation. A high value points to a need for a large dose. Broadly, the LD50 is the dose at which mortality reaches 50%.

With `CNc1ncnc2c1ncn2Cc1ccccc1F` [BW-A78U], the ED50 in the series on Rattus norvegicus [1] stood at 1.7 mg/kg; in the series on Rattus norvegicus [2], 2.5 mg/kg; in the series with Rattus norvegicus [3], 0.2 mg/kg; with Mus musculus [4] it was 4 mg/kg; with Mus musculus [7], 5 mg/kg; in the series on Mus musculus [8] it was 14 mg/kg. In addition, the values for the LD50 (in [5]; in the series listed under Rattus norvegicus [6]) were over 1000 mg/kg and over 500 mg/kg, respectively.

As for `O=C1NC(=O)C(c2ccccc2)(c2ccccc2)N1` [PHENYTOIN], the ED50 stood at 10 mg/kg with Rattus norvegicus [1]; 4 mg/kg in the series on Rattus norvegicus [3]; 1.8 mg/kg in the series with Mus musculus [4]; 9 mg/kg in the series with Mus musculus [7]; 20 mg/kg in the series on Rattus norvegicus [9]; 22 mg/kg with Mus musculus [8].

(Values after ChEMBL document CHEMBL1123297, “9-(2-Fluorobenzyl)-6-(methylamino)-9H-purine hydrochloride. Synthesis and anticonvulsant activity” (J Med Chem, 1986).)
